BindingDB's records for doi:10.1111/cbdd.12822 (Wuhan University of Technology, 2016)

Assays:
[1] = molecular target: Carboxylic ester hydrolase (Equus caballus, UniProt Q9N1N9); experiment: AChE and BuChE Inhibition Assay; settings: pH 8; 25 °C
Experimental: (§1) This spectrophotometric assay is based on the reaction of 5,5-dithio-bis(2-nitrobenzoic)acid (DTNB) with thiocholine to yield a colored product. Shimadzu (Kyoto, Japan) UV-1700 UV-vis spectrophotometer was used to record the measurements. The enzyme solutions were prepared at 2.5 units/mL concentrationin 1% gelatin solution. BChE/AChE and compound solutions (50 μL each) in 2% DMSO at 10^-1-10^-6 mM concentration were added to 3 mL phosphate buffer (pH 8 &plusnm; 0.1)followed by incubation for 5 min at 25 °C. The reaction was commenced by the addition of acetylthiocholine iodide (ATC) (10 μL) and DTNB (50 μL) to the enzyme-inhibitor mixture. […] The blank reading contained 10 μL substrate, 50 μL DTNB, 50 μL (2%) DMSO, and 3 mL buffer. The reaction was performed in triplicate.

Acetylcholinesterase = Acetylcholinesterase (Electrophorus electricus, UniProt O42275); experiment: AChE and BuChE Inhibition Assay; settings: pH 8; 25 °C
Experimental: as §1

[2] = molecular target: T1, Amine oxidase [flavin-containing] B (Rattus norvegicus, UniProt P19643); experiment: Monoamine Oxidase Assay; settings: pH 7.4; 38 °C
T1 sequence (P19643 whole entry): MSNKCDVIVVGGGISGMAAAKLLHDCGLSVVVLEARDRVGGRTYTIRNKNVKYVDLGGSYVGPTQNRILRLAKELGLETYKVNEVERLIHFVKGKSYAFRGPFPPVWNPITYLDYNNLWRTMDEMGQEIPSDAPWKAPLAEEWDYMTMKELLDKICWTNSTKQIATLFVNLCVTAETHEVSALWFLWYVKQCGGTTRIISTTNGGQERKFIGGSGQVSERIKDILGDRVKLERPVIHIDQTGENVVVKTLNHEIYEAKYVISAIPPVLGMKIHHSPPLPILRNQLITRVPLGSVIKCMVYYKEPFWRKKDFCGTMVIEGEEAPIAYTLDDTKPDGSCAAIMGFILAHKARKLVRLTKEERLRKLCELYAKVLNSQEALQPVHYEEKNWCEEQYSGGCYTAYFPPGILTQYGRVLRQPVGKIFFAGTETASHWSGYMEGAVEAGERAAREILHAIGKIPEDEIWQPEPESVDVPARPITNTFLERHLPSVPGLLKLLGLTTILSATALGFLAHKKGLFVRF

[3] = molecular target: T2, Amine oxidase [flavin-containing] A (Rattus norvegicus, UniProt P21396); experiment: Monoamine Oxidase Assay; settings: pH 7.4; 38 °C
T2 sequence (P21396 whole entry): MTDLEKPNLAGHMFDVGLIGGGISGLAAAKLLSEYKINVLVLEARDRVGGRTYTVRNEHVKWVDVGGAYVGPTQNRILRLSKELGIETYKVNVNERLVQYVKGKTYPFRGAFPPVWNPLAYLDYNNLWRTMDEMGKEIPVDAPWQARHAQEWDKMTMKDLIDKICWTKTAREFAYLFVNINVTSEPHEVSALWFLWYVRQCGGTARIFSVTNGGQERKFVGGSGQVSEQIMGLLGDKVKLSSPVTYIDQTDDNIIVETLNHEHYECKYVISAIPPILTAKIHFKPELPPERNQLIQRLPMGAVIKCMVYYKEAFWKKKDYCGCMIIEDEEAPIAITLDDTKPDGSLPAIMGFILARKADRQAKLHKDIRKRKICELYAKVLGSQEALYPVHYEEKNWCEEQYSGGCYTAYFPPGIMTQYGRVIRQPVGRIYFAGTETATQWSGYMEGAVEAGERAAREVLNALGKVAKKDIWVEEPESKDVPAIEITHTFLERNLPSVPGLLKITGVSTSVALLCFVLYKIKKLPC

Chain of Carboxylic ester hydrolase (Q9N1N9 whole entry): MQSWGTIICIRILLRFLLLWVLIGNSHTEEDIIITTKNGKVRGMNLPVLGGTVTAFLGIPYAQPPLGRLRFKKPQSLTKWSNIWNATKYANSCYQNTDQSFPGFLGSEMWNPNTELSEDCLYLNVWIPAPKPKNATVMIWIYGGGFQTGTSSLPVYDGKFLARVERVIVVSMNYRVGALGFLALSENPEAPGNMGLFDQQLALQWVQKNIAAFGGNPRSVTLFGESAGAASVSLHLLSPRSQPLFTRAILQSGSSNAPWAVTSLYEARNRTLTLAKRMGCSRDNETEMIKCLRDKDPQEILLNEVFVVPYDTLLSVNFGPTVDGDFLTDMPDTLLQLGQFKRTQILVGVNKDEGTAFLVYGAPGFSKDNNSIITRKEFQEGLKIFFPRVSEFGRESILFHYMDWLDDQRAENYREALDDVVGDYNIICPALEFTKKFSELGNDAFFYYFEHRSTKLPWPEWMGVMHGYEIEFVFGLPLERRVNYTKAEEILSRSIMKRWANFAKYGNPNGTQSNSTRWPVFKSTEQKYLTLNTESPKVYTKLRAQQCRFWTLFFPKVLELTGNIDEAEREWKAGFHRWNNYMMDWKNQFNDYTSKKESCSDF
Chain of Acetylcholinesterase (O42275 whole entry): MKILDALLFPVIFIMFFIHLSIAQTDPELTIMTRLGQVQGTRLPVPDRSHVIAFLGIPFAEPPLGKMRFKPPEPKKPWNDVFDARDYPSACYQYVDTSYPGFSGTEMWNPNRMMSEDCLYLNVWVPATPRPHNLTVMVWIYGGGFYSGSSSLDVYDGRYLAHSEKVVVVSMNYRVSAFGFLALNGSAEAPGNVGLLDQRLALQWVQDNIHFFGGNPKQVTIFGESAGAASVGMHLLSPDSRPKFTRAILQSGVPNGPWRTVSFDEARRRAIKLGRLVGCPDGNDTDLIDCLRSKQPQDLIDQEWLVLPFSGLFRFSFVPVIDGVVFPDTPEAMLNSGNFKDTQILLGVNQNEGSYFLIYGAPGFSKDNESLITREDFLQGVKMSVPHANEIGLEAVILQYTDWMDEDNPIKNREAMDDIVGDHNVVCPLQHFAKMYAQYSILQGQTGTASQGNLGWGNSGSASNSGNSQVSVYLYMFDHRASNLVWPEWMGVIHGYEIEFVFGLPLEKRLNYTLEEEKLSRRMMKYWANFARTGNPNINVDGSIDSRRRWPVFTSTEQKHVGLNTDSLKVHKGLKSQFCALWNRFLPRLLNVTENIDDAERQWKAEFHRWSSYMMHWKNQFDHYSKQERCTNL

| SMILES | IC50 [1] [µM] | IC50 (Acetylcholinesterase) [µM] | IC50 [2] [µM] | IC50 [3] [µM] |
| --- | --- | --- | --- | --- |
| COc1cccc(/C=C2\CCc3ccc([N+](=O)[O-])cc3C2=O)c1Cl [(2E)-2-[(2-chloro-3-methoxyphenyl)methylidene]-7-nitro-1,2,3,4-tetrahydronaphthalen-1-one (3ae)] | 27.9 | 9.14 | 6.8 | 7.23 |
| COc1cc(/C=C2\CCc3ccc(Br)cc3C2=O)c(Br)c(OC)c1OC [(2E)-7-bromo-2-[(2-bromo-3,4,5-trimethoxyphenyl)methylidene]-1,2,3,4-tetrahydronaphthalen-1-one (3aa)] | > 100 | > 100 | 44.6 | > 100 |
| COc1ccc(/C=C2\CCc3ccc(Br)cc3C2=O)c(Cl)c1OC [(2E)-7-bromo-2-[(2-chloro-3,4-dimethoxyphenyl)methylidene]-1,2,3,4-tetrahydronaphthalen-1-one (3z)] | > 100 | > 100 | 56.4 | > 100 |
| COc1cccc(/C=C2\CCc3ccc(Br)cc3C2=O)c1Cl [(2E)-7-bromo-2-[(2-chloro-3-methoxyphenyl)methylidene]-1,2,3,4-tetrahydronaphthalen-1-one (3y)] | > 100 | > 100 | 67.9 | > 100 |
| COc1ccc(/C=C2\CCc3ccc(Cl)cc3C2=O)c(Cl)c1OC [(2E)-7-chloro-2-[(2-chloro-3,4-dimethoxyphenyl)methylidene]-1,2,3,4-tetrahydronaphthalen-1-one (3k)] | 56.7 | > 100 | > 100 | > 100 |
| COc1cccc(/C=C2\CCc3ccc(Cl)cc3C2=O)c1Cl [(2E)-7-chloro-2-[(2-chloro-3-methoxyphenyl)methylidene]-1,2,3,4-tetrahydronaphthalen-1-one (3j)] | > 100 | > 100 | > 100 | > 100 |
